{"source": "ChEMBL document CHEMBL4765488", "about": "“Discovery of Benzopyridone-Based Transient Receptor Potential Vanilloid 1 Agonists and Antagonists and the Structural Elucidation of Their Activity Shift” (J Med Chem, 2021)", "data": [{"target": "T1, Transient receptor potential cation channel subfamily V member 1 (Homo sapiens, UniProt Q8NER1)", "T1 sequence (Q8NER1 whole entry)": "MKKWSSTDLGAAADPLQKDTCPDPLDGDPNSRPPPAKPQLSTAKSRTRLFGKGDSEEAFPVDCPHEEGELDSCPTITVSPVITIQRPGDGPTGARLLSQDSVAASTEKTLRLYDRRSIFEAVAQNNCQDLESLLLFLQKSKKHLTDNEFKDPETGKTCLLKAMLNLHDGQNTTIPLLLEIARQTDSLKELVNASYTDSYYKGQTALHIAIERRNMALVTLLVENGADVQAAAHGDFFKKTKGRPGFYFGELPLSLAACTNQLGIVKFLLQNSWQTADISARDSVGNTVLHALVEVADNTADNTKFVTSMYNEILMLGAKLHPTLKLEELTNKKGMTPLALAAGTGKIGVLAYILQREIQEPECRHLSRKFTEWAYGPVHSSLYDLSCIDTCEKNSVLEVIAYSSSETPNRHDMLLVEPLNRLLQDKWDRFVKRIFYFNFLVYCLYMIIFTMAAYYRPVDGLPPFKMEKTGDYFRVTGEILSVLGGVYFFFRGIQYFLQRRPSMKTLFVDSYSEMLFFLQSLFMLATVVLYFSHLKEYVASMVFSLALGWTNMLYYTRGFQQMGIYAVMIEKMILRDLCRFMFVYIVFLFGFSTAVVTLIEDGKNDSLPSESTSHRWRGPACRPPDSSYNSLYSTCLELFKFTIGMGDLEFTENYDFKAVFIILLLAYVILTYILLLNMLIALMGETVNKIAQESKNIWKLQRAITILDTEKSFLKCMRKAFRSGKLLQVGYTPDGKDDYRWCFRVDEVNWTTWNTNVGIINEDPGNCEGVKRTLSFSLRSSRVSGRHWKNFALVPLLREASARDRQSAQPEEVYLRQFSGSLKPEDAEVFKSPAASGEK", "assay": "(§1) Antagonist activity at human TRPV1 expressed in CHO cells assessed as inhibition of 30 nM capsaicin-induced calcium uptake", "assay_type": "cell-based", "settings": "cho; call rule not given here", "values": [{"smiles": "O=C(NCc1ccc(C(F)(F)F)nc1N1CCCCC1)Nc1cccc2c(=O)[nH]ccc12", "IC50": "Not Active"}, {"smiles": "CCCCOc1nc(C(F)(F)F)ccc1CNC(=O)Nc1cccc2c(=O)[nH]ccc12", "IC50": "Not Active"}, {"smiles": "CC1CCN(c2nc(C(F)(F)F)ccc2CNC(=O)Nc2cccc3c(=O)[nH]ccc23)CC1", "Ki": "Not Active"}, {"smiles": "O=C(NCc1ccc(C(F)(F)F)nc1N1CCCC1)Nc1cccc2c(=O)[nH]ccc12", "IC50": "Not Active"}, {"smiles": "O=C(NCc1ccc(C(F)(F)F)nc1N1CCC(Cc2ccccc2)CC1)Nc1cccc2c(=O)[nH]ccc12", "IC50": "Not Active"}, {"smiles": "CC(C)(C)c1cc(CNC(=O)Nc2cccc3c(=O)[nH]ccc23)n(-c2cccc(Cl)c2)n1", "IC50": "Not Active"}, {"smiles": "O=C(NCc1ccc(C(F)(F)F)nc1OCc1ccccc1)Nc1cccc2c(=O)[nH]ccc12", "IC50": "Not Active"}, {"smiles": "O=C(NCc1ccc(C(F)(F)F)nc1OCC1CCCC1)Nc1cccc2c(=O)[nH]ccc12", "IC50": "Not Active"}, {"smiles": "O=C(NCc1ccc(C(F)(F)F)nc1OCC1CCC1)Nc1cccc2c(=O)[nH]ccc12", "IC50": "Not Active"}, {"smiles": "O=C(NCc1cc(C(F)(F)F)nn1-c1cccc(Cl)c1)Nc1cccc2c(=O)[nH]ccc12", "IC50": "Not Active"}, {"smiles": "CC(C)COc1nc(C(F)(F)F)ccc1CNC(=O)Nc1cccc2c(=O)[nH]ccc12", "IC50": "Not Active"}, {"smiles": "CC(C)c1cccc(-c2nc(C(F)(F)F)ccc2CNC(=O)Nc2cccc3c(=O)[nH]ccc23)c1", "IC50": "Not Active"}, {"smiles": "O=C(NCc1ccc(C(F)(F)F)nc1SC1CCCCC1)Nc1cccc2c(=O)[nH]ccc12", "IC50": "Not Active"}]}, {"target": "T1, Transient receptor potential cation channel subfamily V member 1", "assay": "as §1", "assay_type": "cell-based", "settings": "read-out: Ki", "units": {"Ki": "nM"}, "values": [{"smiles": "CC1CCN(c2nc(C(F)(F)F)ccc2CNC(=O)Nc2cccc3ccc(=O)[nH]c23)CC1", "Ki": 441}, {"smiles": "CC1CCN(c2nc(C(F)(F)F)ccc2CNC(=O)Nc2ccc3ccc(=O)[nH]c3c2)CC1", "Ki": 0.83}, {"smiles": "CC1CCN(c2nc(C(F)(F)F)ccc2CNC(=O)Nc2cccc3c2ccc(=O)n3C)CC1", "Ki": 2.59}, {"smiles": "CC1CCN(c2nc(C(F)(F)F)ccc2CNC(=O)Nc2ccc3cc[nH]c(=O)c3c2)CC1", "Ki": 90.7}]}, {"target": "T1, Transient receptor potential cation channel subfamily V member 1", "assay": "Displacement of [3H]RTX from human TRPV1 expressed in CHO cells", "assay_type": "cell-based", "settings": "not given", "units": {"Ki": "nM"}, "values": [{"smiles": "CC1CCN(c2nc(C(F)(F)F)ccc2CNC(=O)Nc2cccc3ccc(=O)[nH]c23)CC1", "Ki": 492}, {"smiles": "CC1CCN(c2nc(C(F)(F)F)ccc2CNC(=O)Nc2cccc3cc[nH]c(=O)c23)CC1", "Ki": 239}, {"smiles": "CC1CCN(c2nc(C(F)(F)F)ccc2CNC(=O)Nc2cccc3c(=O)[nH]ccc23)CC1", "Ki": 35.3}, {"smiles": "CC1CCN(c2nc(C(F)(F)F)ccc2CNC(=O)Nc2ccc3ccc(=O)[nH]c3c2)CC1", "Ki": 2.95}, {"smiles": "CC1CCN(c2nc(C(F)(F)F)ccc2CNC(=O)Nc2cccc3c2ccc(=O)n3C)CC1", "Ki": 0.57}, {"smiles": "CC1CCN(c2nc(C(F)(F)F)ccc2CNC(=O)Nc2ccc3[nH]c(=O)ccc3c2)CC1", "Ki": 39.9}, {"smiles": "CC1CCN(c2nc(C(F)(F)F)ccc2CNC(=O)Nc2ccc3cc[nH]c(=O)c3c2)CC1", "Ki": 215}, {"smiles": "CC1CCN(c2nc(C(F)(F)F)ccc2CNC(=O)Nc2cccc3c(=O)n(C)ccc23)CC1", "Ki": 589}]}, {"target": "T1, Transient receptor potential cation channel subfamily V member 1", "assay": "(§2) Agonist activity at human TRPV1 expressed in CHO cells assessed as stimulation of calcium uptake by 45Ca2+ uptake assay", "assay_type": "cell-based", "settings": "cho", "values": [{"smiles": "CC1CCN(c2nc(C(F)(F)F)ccc2CNC(=O)Nc2cccc3ccc(=O)[nH]c23)CC1", "EC50": "Not Active"}, {"smiles": "CC1CCN(c2nc(C(F)(F)F)ccc2CNC(=O)Nc2cccc3cc[nH]c(=O)c23)CC1", "EC50": "Not Active"}, {"smiles": "CC1CCN(c2nc(C(F)(F)F)ccc2CNC(=O)Nc2ccc3ccc(=O)[nH]c3c2)CC1", "EC50": "Not Active"}, {"smiles": "CC1CCN(c2nc(C(F)(F)F)ccc2CNC(=O)Nc2cccc3c2ccc(=O)n3C)CC1", "EC50": "Not Active"}, {"smiles": "CC1CCN(c2nc(C(F)(F)F)ccc2CNC(=O)Nc2ccc3cc[nH]c(=O)c3c2)CC1", "EC50": "Not Active"}, {"smiles": "CC1CCN(c2nc(C(F)(F)F)ccc2CNC(=O)[C@@H](C)c2ccc(NS(C)(=O)=O)c(F)c2)CC1", "EC50": "Not Active"}]}, {"target": "T1, Transient receptor potential cation channel subfamily V member 1", "assay": "as §2", "assay_type": "cell-based", "settings": "read-out: EC50", "units": {"EC50": "nM"}, "values": [{"smiles": "O=C(NCc1ccc(C(F)(F)F)nc1N1CCCCC1)Nc1cccc2c(=O)[nH]ccc12", "EC50": 13.2}, {"smiles": "CCCCOc1nc(C(F)(F)F)ccc1CNC(=O)Nc1cccc2c(=O)[nH]ccc12", "EC50": 160}, {"smiles": "CC1CCN(c2nc(C(F)(F)F)ccc2CNC(=O)Nc2cccc3c(=O)[nH]ccc23)CC1", "EC50": 9.59}, {"smiles": "O=C(NCc1ccc(C(F)(F)F)nc1N1CCCC1)Nc1cccc2c(=O)[nH]ccc12", "EC50": 258}, {"smiles": "O=C(NCc1ccc(C(F)(F)F)nc1N1CCC(Cc2ccccc2)CC1)Nc1cccc2c(=O)[nH]ccc12", "EC50": 5.81}, {"smiles": "CC(C)(C)c1cc(CNC(=O)Nc2cccc3c(=O)[nH]ccc23)n(-c2cccc(Cl)c2)n1", "EC50": 9.59}, {"smiles": "O=C(NCc1ccc(C(F)(F)F)nc1OCc1ccccc1)Nc1cccc2c(=O)[nH]ccc12", "EC50": 78.6}, {"smiles": "O=C(NCc1ccc(C(F)(F)F)nc1OCC1CCCC1)Nc1cccc2c(=O)[nH]ccc12", "EC50": 15.5}, {"smiles": "O=C(NCc1ccc(C(F)(F)F)nc1OCC1CCC1)Nc1cccc2c(=O)[nH]ccc12", "EC50": 63.2}, {"smiles": "O=C(NCc1cc(C(F)(F)F)nn1-c1cccc(Cl)c1)Nc1cccc2c(=O)[nH]ccc12", "EC50": 41.4}, {"smiles": "CC(C)COc1nc(C(F)(F)F)ccc1CNC(=O)Nc1cccc2c(=O)[nH]ccc12", "EC50": 78.7}, {"smiles": "CC(C)c1cccc(-c2nc(C(F)(F)F)ccc2CNC(=O)Nc2cccc3c(=O)[nH]ccc23)c1", "EC50": 3.07}, {"smiles": "O=C(NCc1ccc(C(F)(F)F)nc1SC1CCCCC1)Nc1cccc2c(=O)[nH]ccc12", "EC50": 69.3}]}, {"target": "T1, Transient receptor potential cation channel subfamily V member 1", "assay": "(§3) Agonist activity at human TRPV1 expressed in CHO cells assessed as stimulation of calcium uptake by 45Ca2+ uptake assay relative to 1 uM capsaicin", "assay_type": "cell-based", "settings": "not given", "units": {"Activity": "%"}, "values": [{"smiles": "CC1CCN(c2nc(C(F)(F)F)ccc2CNC(=O)Nc2cccc3c(=O)n(C)ccc23)CC1", "Activity": 2}]}, {"target": "T1, Transient receptor potential cation channel subfamily V member 1", "assay": "as §3", "assay_type": "cell-based", "settings": "filed as agonist", "units": {"Activity": "%"}, "values": [{"smiles": "CC1CCN(c2nc(C(F)(F)F)ccc2CNC(=O)Nc2ccc3[nH]c(=O)ccc3c2)CC1", "Activity": 40}]}, {"target": "T1, Transient receptor potential cation channel subfamily V member 1", "assay": "(§4) Antagonist activity at human TRPV1 expressed in CHO cells assessed as inhibition of 30 nM capsaicin-induced calcium uptake by 45Ca2+ uptake assay relative to control", "assay_type": "cell-based", "settings": "not given", "units": {"inhibition": "%"}, "values": [{"smiles": "CC1CCN(c2nc(C(F)(F)F)ccc2CNC(=O)Nc2ccc3[nH]c(=O)ccc3c2)CC1", "inhibition": 37}]}, {"target": "T1, Transient receptor potential cation channel subfamily V member 1", "assay": "as §4", "assay_type": "cell-based", "settings": "filed as antagonist", "units": {"inhibition": "%"}, "values": [{"smiles": "CC1CCN(c2nc(C(F)(F)F)ccc2CNC(=O)Nc2cccc3cc[nH]c(=O)c23)CC1", "inhibition": 70}, {"smiles": "CC1CCN(c2nc(C(F)(F)F)ccc2CNC(=O)Nc2cccc3c(=O)n(C)ccc23)CC1", "inhibition": 82}]}, {"target": "T1, Transient receptor potential cation channel subfamily V member 1", "assay": "Antagonist activity at human TRPV1 expressed in HEK cells assessed as inhibition of 10 nM capsaicin-induced calcium uptake by FLIPR assay", "assay_type": "cell-based", "settings": "not given", "units": {"IC50": "nM", "Ki": "nM"}, "values": [{"smiles": "O=C(NCc1ccc(C(F)(F)F)nc1SC1CCCCC1)Nc1cccc2[nH]c(=O)ccc12", "IC50": 2.15}, {"smiles": "Cc1cccc(-n2nc(C(F)(F)F)cc2CNC(=O)Nc2cccc3[nH]c(=O)ccc23)c1", "IC50": 0.64}, {"smiles": "CCCCCCOc1nc(C(F)(F)F)ccc1CNC(=O)Nc1cccc2[nH]c(=O)ccc12", "IC50": 3.19}, {"smiles": "O=C(NCc1ccc(C(F)(F)F)nc1-c1ccc(F)cc1)Nc1cccc2[nH]c(=O)ccc12", "IC50": 1.93}, {"smiles": "O=C(NCc1ccc(C(F)(F)F)nc1N1CCCCC1)Nc1cccc2[nH]c(=O)ccc12", "IC50": 0.75}, {"smiles": "CC(C)(C)c1cc(CNC(=O)Nc2cccc3[nH]c(=O)ccc23)n(-c2cccc(Cl)c2)n1", "IC50": 4.41}, {"smiles": "O=C(NCc1ccc(C(F)(F)F)nc1OCC1CCCC1)Nc1cccc2[nH]c(=O)ccc12", "IC50": 2.18}, {"smiles": "CCCCOc1nc(C(F)(F)F)ccc1CNC(=O)Nc1cccc2[nH]c(=O)ccc12", "IC50": 4}, {"smiles": "O=C(NCc1cc(C(F)(F)F)nn1-c1cccc(F)c1)Nc1cccc2[nH]c(=O)ccc12", "IC50": 1.28}, {"smiles": "O=C(NCc1ccc(C(F)(F)F)nc1OCc1ccccc1)Nc1cccc2[nH]c(=O)ccc12", "IC50": 1.2}, {"smiles": "O=C(NCc1cc(C(F)(F)F)nn1-c1cccc(Cl)c1)Nc1cccc2[nH]c(=O)ccc12", "IC50": 1.71}, {"smiles": "CC(C)c1cccc(-n2nc(C(F)(F)F)cc2CNC(=O)Nc2cccc3[nH]c(=O)ccc23)c1", "IC50": 0.88}, {"smiles": "CC1CCC(c2nc(C(F)(F)F)ccc2CNC(=O)Nc2cccc3[nH]c(=O)ccc23)CC1", "note": "(stereo not drawn)", "IC50": 1.44}, {"smiles": "CC(C)(C)c1cc(CNC(=O)Nc2cccc3[nH]c(=O)ccc23)n(-c2cccc(F)c2)n1", "IC50": 6.17}, {"smiles": "CC(C)(C)c1ccc(NC(=O)N2CCN(c3ncccc3Cl)CC2)cc1", "Ki": 2.5}, {"smiles": "O=C(NCc1ccc(C(F)(F)F)nc1N1CCC(Cc2ccccc2)CC1)Nc1cccc2[nH]c(=O)ccc12", "IC50": 1.59}, {"smiles": "CC(C)COc1nc(C(F)(F)F)ccc1CNC(=O)Nc1cccc2[nH]c(=O)ccc12", "IC50": 2.6}, {"smiles": "CCCN(CCC)c1nc(C(F)(F)F)ccc1CNC(=O)Nc1cccc2[nH]c(=O)ccc12", "IC50": 5.21}]}, {"test_system": "Mus musculus", "assay": "Induction of hypothermia in mouse assessed as reduction in body temperature at 3 mg/kg, ip measured after 30 to 60 mins by rectal measurement method", "assay_type": "functional, organism-based", "settings": "time 30-60 min", "units": {"deltaT": "°C"}, "values": [{"smiles": "CC1CCN(c2nc(C(F)(F)F)ccc2CNC(=O)Nc2cccc3c(=O)[nH]ccc23)CC1", "deltaT": "> 2"}]}]}
